Test results taken from ChEMBL document CHEMBL4673331 (J Med Chem, 2020).
Calls of active or inactive are those of the source. No cut-off for these calls is given here.

What was measured:
[1] = Intrinsic clearance in rat liver microsomes; type: ADME, Microsome; conditions: read-out: CLH
[2] = Protein binding in rat plasma; type: ADME, cell-free; conditions: read-out: PPB (converted)
[3] = target: T1, Mucosa-associated lymphoid tissue lymphoma translocation protein 1 (Homo sapiens, UniProt Q9UDY8); experiment: Allosteric inhibition of human wild-type […] MALT1 (329 to 824 residues) protease activity using Ac-Leu-Arg-Ser-Arg Rh110-dPro as substrate preincubated for 60 mins followed by substrate addition and measured after 60 mins by fluorescence assay
T1 sequence (Q9UDY8 whole entry): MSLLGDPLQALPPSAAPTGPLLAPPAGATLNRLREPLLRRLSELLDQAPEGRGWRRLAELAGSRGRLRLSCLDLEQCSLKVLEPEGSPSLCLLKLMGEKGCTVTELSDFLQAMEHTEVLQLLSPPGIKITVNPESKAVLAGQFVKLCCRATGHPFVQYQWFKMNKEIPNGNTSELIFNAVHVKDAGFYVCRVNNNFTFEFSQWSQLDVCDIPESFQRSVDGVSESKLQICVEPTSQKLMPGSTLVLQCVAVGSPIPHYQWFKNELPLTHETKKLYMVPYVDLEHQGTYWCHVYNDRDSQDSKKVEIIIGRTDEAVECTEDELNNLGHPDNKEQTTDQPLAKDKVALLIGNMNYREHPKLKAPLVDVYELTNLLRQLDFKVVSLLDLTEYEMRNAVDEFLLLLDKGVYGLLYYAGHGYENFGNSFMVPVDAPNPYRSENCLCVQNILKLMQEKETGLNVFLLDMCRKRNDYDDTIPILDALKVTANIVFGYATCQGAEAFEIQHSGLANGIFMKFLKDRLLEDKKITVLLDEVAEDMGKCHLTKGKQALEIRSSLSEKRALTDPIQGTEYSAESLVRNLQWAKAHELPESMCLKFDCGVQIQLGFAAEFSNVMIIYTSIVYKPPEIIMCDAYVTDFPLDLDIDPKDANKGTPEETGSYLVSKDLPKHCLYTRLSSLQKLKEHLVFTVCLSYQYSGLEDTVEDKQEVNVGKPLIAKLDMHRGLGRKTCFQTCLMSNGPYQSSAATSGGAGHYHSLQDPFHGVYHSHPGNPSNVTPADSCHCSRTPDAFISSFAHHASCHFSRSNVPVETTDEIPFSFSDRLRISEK

[4] = target: T1, Mucosa-associated lymphoid tissue lymphoma translocation protein 1; experiment: Allosteric inhibition of MALT1-mediated T cell activation in human Jurkat cells assessed as decrease in PMA induced IL2 activation preincubated for 1 hr followed by addition of PMA measured after 5.5 hrs by luciferase reporter gene assay; type: cell-based
[5] = system: BJAB; experiment: Antiproliferation activity against human BJAB cells assessed as reduction in cell viability incubated for 14 days by resazurin dye-based fluorescence analysis; type: functional; conditions: 336 h
[6] = system: OCI-Ly3; experiment: Antiproliferation activity against human OCI-LY3 cells assessed as reduction in cell viability incubated for 14 days by resazurin dye-based fluorescence analysis; type: functional; conditions: OCI-Ly3, 336 h
[7] = Inhibition of mixed lymphocyte reaction in human PBMC cells assessed as reduction in [3H]-thymidine incorporation measured after 5 days in presence of Il-7 by microbeta counting method; type: functional, cell-based
[8] = system: BMDM; experiment: Cytotoxicity against mouse Bone marrow-derived macrophage cells assessed as reduction in cell viability by [3H]-thymidine incorporation assay; type: cell-based
[9] = Intrinsic clearance in mouse liver microsome; type: ADME; conditions: liver microsomes, read-out: CLH
[10] = Protein binding in mouse plasma; type: ADME, cell-free; conditions: read-out: PPB (converted)
[11] = system: BJAB; experiment: Antiproliferative activity against human BJAB cells assessed as assessed as reduction in colony formation at 19.5 to 10000 nM incubated for 14 days by soft-agar assay; type: functional, cell-based; conditions: dose 19.5-10000 nM, time 14.0 day
[12] = target: T2, Mucosa-associated lymphoid tissue lymphoma translocation protein 1 (Homo sapiens) (UniProt Q9UDY8); experiment: Allosteric inhibition of MALT1 protease activity in human OCI-LY3 cells assessed as accumulation of uncleaved substrate RELB incubated for 24 hrs by Western blot analysis; type: cell-based; conditions: OCILY3, filed as negative allosteric modulator, dose 50-5000 nM
T2 sequence (whole entry): T1 sequence (Q9UDY8 whole entry)

[13] = target: T2, Mucosa-associated lymphoid tissue lymphoma translocation protein 1 (Homo sapiens); experiment: Allosteric inhibition of MALT1 in human OCI-LY3 cells assessed as repression of IRF4 at 50 to 5000 nM incubated for 24 hrs by Western blot analysis; type: cell-based; conditions: OCILY3, filed as negative allosteric modulator, dose 50-5000 nM
[14] = Clearance in Balb/c mouse at 1 mg/kg, iv administered as cassette dosing; type: ADME, organism-based; conditions: in vivo
[15] = Half-life in Sprague-Dawley rat at 1 mg/kg, iv administered as cassette dosing; type: ADME, organism-based; conditions: in vivo
[16] = Dose normalized AUC (0 to 24 hrs) in Balb/c mouse at 3 mg/kg, po administered as cassette dosing; type: ADME, organism-based; conditions: in vivo
[17] = Dose normalized AUC (0 to 24 hrs) in Sprague-Dawley rat at 3 mg/kg, po administered as cassette dosing; type: ADME, organism-based; conditions: in vivo
[18] = Dose normalized Cmax in Balb/c mouse at 3 mg/kg, po administered as cassette dosing; type: ADME, organism-based; conditions: in vivo
[19] = Oral bioavailability in Balb/c mouse at 3 mg/kg administered as cassette dosing; type: ADME, organism-based; conditions: in vivo
[20] = Oral bioavailability in Sprague-Dawley rat at 3 mg/kg administered as cassette dosing; type: ADME, organism-based; conditions: in vivo
[21] = Drug concentration in Balb/c mouse blood at 30 mg/kg, po BID by LC-MS/MS analysis; type: ADME, organism-based; conditions: in vivo, read-out: Drug uptake
[22] = Drug concentration in Balb/c mouse blood at 30 mg/kg, po BID administered at 12 hrs interval immunized post 1 hr first treatment measured after 12 hrs post second dose by LC-MS/MS analysis; type: ADME, organism-based; conditions: whole blood, read-out: Drug uptake
[23] = Drug concentration in Balb/c mouse blood at 100 mg/kg, po BID administered at 12 hrs interval immunized post 1 hr first treatment measured after 12 hrs post second dose by LC-MS/MS analysis; type: ADME, organism-based; conditions: whole blood, read-out: Drug uptake
[24] = system: Mus musculus; experiment: Anti-autoimmune disease activity in Balb/c mouse assessed as reduction in anti-DNP induced IgM producing B cells at 30 mg/kg, po administered twice at 12 hrs interval immunized post 1 hr first treatment measured after 8 days by ELISA relative to control; type: functional; design: scale not given: the % may be the effect or the level left; conditions: time 8 day
[25] = system: Mus musculus; experiment: Anti-autoimmune disease activity in Balb/c mouse assessed as reduction in anti-DNP induced IgG producing B cells at 30 mg/kg, po administered twice at 12 hrs interval immunized post 1 hr first treatment measured after 8 days by ELISA relative to control; type: functional, organism-based; conditions: time 8.0 day
[26] = Toxicity in Balb/c mouse assessed as behavioral changes at 10 to 100 mg/kg, po BID administered at 12 hrs interval immunized post 1 hr first treatment; type: organism-based; conditions: in vivo, dose 10-100 mg/kg
[27] = Toxicity in Balb/c mouse assessed as histopathological changes at 10 to 100 mg/kg, po BID administered at 12 hrs interval immunized post 1 hr first treatment; type: organism-based; conditions: in vivo, dose 10-100 mg/kg
[28] = Tmax in human TMD8 cells xenografted SCID mouse at 100 mg/kg, po qd by UPLC-MS/MS analysis; type: ADME, organism-based; conditions: in vivo
[29] = system: Mus musculus; experiment: Immunomodulatory activity in human TMD8 cells xenografted po dosed SCID mouse assessed as increase in levels of uncleaved BCL10 in tumor administered twice daily for 2 weeks; type: functional, organism-based; conditions: dose mg/kg 10-100, time 2.0 weeks

- microsomal CLint [1]: 42 µL/min/mg
- fraction unbound [2]: 0.013
- IC50 [3]: 0.009 µM
- IC50 [4]: 0.18 µM
- IC50 [6]: > 10 µM
- IC50 [7]: 0.19 µM
- microsomal CLint [9]: 82 µL/min/mg
- fraction unbound [10]: 0.011
- inhibition [12]: Dose-dependent effect
- inhibition [13]: Active
- clearance [14]: 0.66 L/h/kg
- half-life [15]: 3.2 h
- AUC/dose [16]: 3100 nM·h
- AUC/dose [17]: 547 nM·h
- Cmax/dose [18]: 0.549 µM
- bioavailability [19]: 99%
- bioavailability [20]: 61%
- concentration [21]: 9.3 µM
- concentration at 12 h [22]: 0.12 µM
- concentration at 12 h [23]: 0.69 µM
- Tmax [28]: 2 h
Structure (SMILES): C[C@H]1COC[C@H](C)N1c1c(NC(=O)Nc2ccnc(C(F)(F)F)c2)cnc2cc(Cl)nn12
- IC50 [5]: 2 µM
- IC50 [8]: > 10 µM
- Activity [11]: inactive
- Activity [24]: 25%
- Activity [25]: Active
- Activity [26]: Non-Toxic
- Activity [27]: Non-Toxic
- Activity [29]: Dose-dependent effect
